Source: ChEMBL document CHEMBL3232869, “Anti-inflammatory components of Euphorbia humifusa Willd” (Bioorg Med Chem Lett, 2014)
Activity calls are given as the source filed them. The rule behind the calls is not given here.

Tests used:
RAW264.7 [1] = assay: Antiinflammatory activity in mouse RAW264.7 cells assessed as inhibition of LPS-induced TNF-alpha secretion at 10 uM after 18 hrs by sandwich ELISA; format: functional
RAW264.7 [2] = assay: Antiinflammatory activity in mouse RAW264.7 cells assessed as inhibition of LPS-induced TNF-alpha secretion after 18 hrs by sandwich ELISA; format: functional, cell-based; conditions: RAW264.7, 18 h
RAW264.7 [3] = assay: Antiinflammatory activity in mouse RAW264.7 cells assessed as inhibition of LPS-induced nitric oxide production at 0.4 uM after 18 hrs by griess reaction analysis; format: functional, cell-based
[4] = target: T1, Bifunctional epoxide hydrolase 2 (Homo sapiens) (UniProt P34913); assay: Inhibition of sEH (unknown origin) assessed as substrate PHOME hydrolysis at 25 uM after 1 hr by fluorescence method
T1 sequence (whole entry): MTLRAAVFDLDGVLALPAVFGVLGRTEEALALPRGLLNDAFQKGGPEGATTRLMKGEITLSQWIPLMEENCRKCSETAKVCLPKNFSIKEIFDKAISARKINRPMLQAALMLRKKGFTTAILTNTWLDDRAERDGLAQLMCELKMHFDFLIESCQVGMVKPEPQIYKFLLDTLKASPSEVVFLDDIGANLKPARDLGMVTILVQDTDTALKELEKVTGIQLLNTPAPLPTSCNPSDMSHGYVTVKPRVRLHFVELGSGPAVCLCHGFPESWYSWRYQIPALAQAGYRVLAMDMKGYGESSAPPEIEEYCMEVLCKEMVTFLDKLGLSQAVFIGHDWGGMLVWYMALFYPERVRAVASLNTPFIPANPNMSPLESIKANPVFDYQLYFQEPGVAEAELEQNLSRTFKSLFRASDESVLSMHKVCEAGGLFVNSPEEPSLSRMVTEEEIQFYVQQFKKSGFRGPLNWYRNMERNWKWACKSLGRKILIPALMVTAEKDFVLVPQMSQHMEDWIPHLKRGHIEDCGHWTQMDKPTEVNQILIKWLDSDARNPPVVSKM

[5] = target: T2, Bifunctional epoxide hydrolase 2 (Homo sapiens, UniProt P34913); assay: Inhibition of sEH (unknown origin) assessed as substrate PHOME hydrolysis after 1 hr by fluorescence method
T2 sequence (P34913 whole entry): T1 sequence (whole entry)

RAW264.7 [6] = assay: Antiinflammatory activity in mouse RAW264.7 cells assessed as inhibition of LPS-induced TNF-alpha secretion at 0.4 uM after 18 hrs by sandwich ELISA; format: functional, cell-based
RAW264.7 [7] = assay: Antiinflammatory activity in mouse RAW264.7 cells assessed as inhibition of LPS-induced nitric oxide production at 10 uM after 18 hrs by griess reaction analysis; format: functional
RAW264.7 [8] = assay: Antiinflammatory activity in mouse RAW264.7 cells assessed as inhibition of LPS-induced nitric oxide production after 18 hrs by griess reaction analysis; format: functional, cell-based; conditions: RAW264.7, 18 h
RAW264.7 [9] = assay: Cytotoxicity against mouse RAW264.7 cells assessed as cell viability at 50 uM after 18 hrs by MTT assay in presence of LPS; format: cell-based; conditions: raw264.7, 18 h

`C[C@@H]1O[C@@H](OC[C@H]2O[C@@H](Oc3c(-c4ccc(O)c(O)c4)oc4cc(O)cc(O)c4c3=O)[C@H](O)[C@@H](O)[C@@H]2O)[C@H](O)[C@H](O)[C@H]1O` [RUTIN] was tested, and the inhibition (RAW264.7 [1]) was “Active”, the IC50 (RAW264.7 [2]) was 44.5 µM and the inhibition (RAW264.7 [3]) was “inactive”. The inhibition [4] was greater than 40%, the IC50 [5] was 24.3 µM and the inhibition (RAW264.7 [6]) was “inactive”. For the same compound, the inhibition (RAW264.7 [7]) was “Active”, the IC50 (RAW264.7 [8]) was 27.5 µM and the Activity (RAW264.7 [9]) was “Non-toxic”.

With `O=c1c(O[C@@H]2O[C@H](CO)[C@@H](O)[C@H](O)[C@H]2O)c(-c2ccc(O)cc2)oc2cc(O)cc(O)c12` [ASTRAGALIN] the inhibition (RAW264.7 [1]) was “Active”, the IC50 (RAW264.7 [2]) was 40.6 µM and the inhibition (RAW264.7 [3]) was “inactive”. For the same compound, the inhibition [4] was greater than 40%, the IC50 [5] was greater than 50 µM and the inhibition (RAW264.7 [6]) was “inactive”. The inhibition (RAW264.7 [7]) was “inactive”, the IC50 (RAW264.7 [8]) was 37.1 µM and the Activity (RAW264.7 [9]) was “Non-toxic”.

With `O=C(OC[C@H]1O[C@@H](OC(=O)c2cc(O)c(O)c(O)c2)[C@H](O)[C@@H](OC(=O)c2cc(O)c(O)c(O)c2)[C@@H]1OC(=O)c1cc(O)c(O)c(O)c1)c1cc(O)c(O)c(O)c1` the inhibition (RAW264.7 [1]) was “Active”, the IC50 (RAW264.7 [2]) was 22.6 µM and the inhibition (RAW264.7 [3]) was “inactive”. The inhibition [4] was greater than 40%, the IC50 [5] was 36.1 µM and the inhibition (RAW264.7 [6]) was “inactive”. The inhibition (RAW264.7 [7]) was “inactive”, the IC50 (RAW264.7 [8]) was greater than 50 µM and the Activity (RAW264.7 [9]) was “Non-toxic”.
